The results in this text go back to patent EP0703239A1, “Aminomethylphosphonic and aminomethylphosphinic acids derivatives and their use in the treatment of degenerative articular diseases” (priority 1994, dated 1996).

For data set [1], the system named is Chondrozyten. As to the kind of experiment: IL-1-induced chondrocytic chondrolysis in chondrocyte agarose culture, 35S-sulfate incorporation. The conditions noted are these: agarose cell culture with 5 u/ml human rec. IL-1 alpha; factor relative to IL-1 treated control.
In another data set the test system is TNF-alpha. As to the kind of experiment: LPS-stimulated interleukin release from human mononuclear cells, ELISA (TNF-alpha). In kind it is cell-based. The conditions noted are these: 10 µmol/l, 20-22 h, read-out: % Hemmung der Interleukin-Freisetzung. As to the method:
(§1) 5. Freisetzung von Interleukinen (insbesondere IL-1β) aus humanen mononuklearen Zellen
(§2) Die erfindungsgemäßen Verbindungen haben eine starke Hemmwirkung auf die Freisetzung von Interleukinen aus Humanzellen. Dies ist von großer pharmakologischer Bedeutung weil Interleukine die unerwünschte Degradation der Knorpelmatrix auslösen können.
(§3) 10 ml Humanblut, stabilisiert mit 1 ml 3,8 %iger Natriumcitrat-Lösung, werden mit 10 ml PM16 (Serva, Heidelberg) verdünnt und mit 15 ml Lymphoprep (Dr. Molter GmbH, Heidelberg) unterschichtet. Die Proben werden 40 Minuten bei 400 xg (1600 rpm Minifuge 2, Heraeus, Osterode) zentrifugiert (Raumtemperatur). Die mononuklearen Zellen sind als weißer Ring an der Grenze Lymphoprep/Plasma sichtbar. Dieser Ring wird mit einer Spritze vorsichtig entnommen, mit dem gleichen Volumen PM16 verdünnt und 10 Minuten bei 400 xg zentrifugiert. Der Niederschlag wird mit ∼ 10 ml RPMI 1640 (+ 300 mg/l L-Glutamin, Gibco, Eggenstein) gewaschen. Nach Resuspendieren der Zellen in ∼ 1 ml RPMI 1640 (+ 300 mg/l L-Glutamin, + 25 mM HEPES, + 100 µg/ml Streptomycin, + 100 µg/ml Penicillin) wird die Zelldichte mit einem Coulter Counter JT (Coulter Diagnostics) bestimmt und auf 5 * 10⁶/ml eingestellt. Die Zellen bestehen typischerweise aus 90 % Lymphozyten und 10 % Monozyten.
(§4) 230 µl mononukleare Zellen werden mit 10 µl Testsubstanz (10 µM in DMSO/Wasser 1/10) und 10 µl Lipopolysaccharide (500 µg gelöst in 1 ml Dimethylsulfoxid (DMSO) und vor Testbeginn 1/10 mit Wasser verdünnt, von Salmonella abortus equi, Sigma, Deisenhofen) 20-22 Stunden bei 37°C; 5 % CO₂ inkubiert. Die Proben werden in einem Eisbad auf 0°C abgekühlt und in einer Sigma-Zentrifuge zentrifugiert (2 Minuten; 2000 rpm). Aliquote des Überstandes werden mit einem kommerziell erhältlichen ELISA (Biermann, Bad Nauheim) bestimmt.
On the technique in general: An ELISA detects its analyte on a solid surface through an enzyme-linked reagent.

For the next data set, the system named is Rattenlebermikrosomen. The data set can be described thus: Inhibition of microsomal lipid peroxidation (malondialdehyde/thiobarbituric acid). The conditions noted are these: rat liver microsomes, FeSO₄ start, 10 min 37°C; read-out: IC50 Mikrosomale Lipidperoxidation. In kind it is biochemical, Ratte. As to the method: 4. Hemmung der Mikrosomalen Lipidperoxidation […]
Alle Schritte werden bei 0°C durchgeführt. Die Leber einer Ratte wird, um alles Hämoglobin zu entfernen, mit 0,9 % NaCl-Lösung gründlich gespült. Die grob zerkleinerte Leber wird dann in 10 mM Tris/HCl pH 7,4; 250 mM Saccharose (10 ml Puffer/g Leber) gepottert. Zunächst wird 5 Minuten bei 600xg zentrifugiert. Der Überstand wird dann 10 min bei 12000xg zentrifugiert und wird mit festem CaCl₂ (117,6 mg/100 ml) auf eine Konzentration von 8 mM eingestellt. Durch Zentrifugieren bei 25000 xg (15 min) wird ein Mikrosomenniederschlag gewonnen. Dieser Niederschlag wird im gleichen Volumen Puffer (10 mM Tris/HCl pH 7,4; 150 mM KCl) rehomogenisiert und erneut 15 min bei 25000 xg zentrifugiert.
Ein Testansatz besteht aus 20 µl Mikrosomen (100 mg/ml), vgl. oben, gelöst in Puffer (250 mM Tris/HCl pH 6,6, 750 mM KCl), 10 µl 50 mM MgCl₂, 10 µl 200 mM Isocitronensäure, 10 µl 4mM NADP (3,028 mg/ml Wasser), 10 µl 25 mM Niacinamid, 10 µl Isocitratdehydrogenase (1:100 verdünnt) und 20 µl Wasser oder Testsubstanz. Gestartet wird die Reaktion mit 10 µl 0,25 mM FeSO₄. Die Inkubation dauert 10 Minuten und erfolgt bei 37°C. Gestoppt wird mit 500 µl eiskalter 20 %iger Trichloressigsäure. Entstandenes Malondialdehyd wird durch Zugabe von 500 µl 0,67 %iger Thiobarbitursäure und 30 Minuten Inkubation bei 90°C in eine pinkfarbene Verbindung überführt, die bei 532 nm gemessen wird. Die Extinktion im Kontrollansatz ohne Prüfpräparat wird auf 0 % Hemmung gesetzt, während das völlige Verschwinden des Signals 100 % Hemmung bedeutet.
In general terms: Liver microsomes are vesicles of endoplasmic reticulum, rich in cytochrome P450 enzymes.

In data set [2] the test system is Chondrozyten. As to the kind of experiment: Stimulation of cartilage matrix (proteoglycan) synthesis in chondrocyte agarose culture, 35S-sulfate incorporation. The conditions noted are these: Chondrocyte, read-out: Stimulationsfaktor der Proteoglykansynthese. It is filed as cell-based, Rinder. The text has this:
1. Wirksamkeit in der Synthese-Stimulierung von Knorpel-Matrix, Prüfung in der Chondrozyten-Kultur
Zellen: Den Fußgelenken frisch geschlachteter Rinder werden der hyaline Knorpel entnommen, mit Pronase (Boehringer Mannheim) und Collagenase (Sigma), die native Matrix enzymatisch abgebaut, und die Chondrozyten in 1 %iger "low melting Agarose" in 24er Multiwell-Schalen in einer Zelldichte von 4 x 10⁶ pro well ausplattiert.
Medium: Komplettes Medium enthält HAM's F12 (Biochrom KG, Berlin) und 10 % foetales Kälberserum (Boehringer Mannheim), die Testsubstanz wird in Medium gelöst, üblicherweise in einer Konzentration von 10⁻⁵ M zugegeben und bei jedem Mediumwechsel erneut zugefügt.
Versuchsdurchführung: Die Behandlung erfolgt vom dritten bis zehnten Tag der Primärkultur, am 9. […] Die dissoziative Extraktion der Proteoglykane aus der Agarose-Schicht wird mit 8M Guanidinium-Hydrochlorid und beigefügten Proteinase-Inhibitoren (Sigma) unter Schütteln bei 4° C über 24 h durchgeführt. Der Überstand wird nach Zentrifugation über eine PD 10 ®Sephadex G 25 Säule in freies und inkorporiertes Sulfat getrennt, dessen Aktivität nach Aliquotierung im β-Szintillationscounter gemessen wird.
Auswertung: Der Parameter für die Matrixproduktion der Chondrozyten ist die Menge synthetisierter Proteoglykane, gemessen als Sulfatinkorporation in cpm. Aus vier Wells pro Gruppe wird der Mittelwert errechnet. Dieser wird durch den Mittelwert der unbehandelten Kontrolle dividiert, und ergibt somit einen Stimulationsfaktor, der bei Stimulation der Matrixsynthese größer 1 ist, bei Hemmung derselben durch Substanzwirkung kleiner 1, und bei unveränderter Matrixsynthese gleich 1 ist.
Als Standard wird Diacerein eingesetzt, das unter dem Markennamen "Artodar" von der Firma Proter bzw. […] Tabelle II

Another data set relates to IL-1beta. As to the kind of experiment: LPS-stimulated interleukin release from human mononuclear cells, ELISA (IL-1beta). In kind it is cell-based. The conditions noted are these: 10 µmol/l, 20-22 h, read-out: % Hemmung der Interleukin-Freisetzung. As to the method:
as §1, §2, §3, §4

Data set [3] deals with Matrix Metalloproteasen (MMP). As to the kind of experiment: Inhibition of matrix metalloproteases from supernatant of PMA-induced synoviocytes, fluorogenic substrate. In kind it is biochemical, Kaninchen. The text has this:
3. Inhibierung von Matrix Metalloproteasen (MMP)
Die erfindungsgemäßen Verbindungen zeigten deutliche inhibitorische Wirkungen auf proteolytische Enzyme, die sogenannten Matrix Metalloproteasen. Dies ist von großer Bedeutung, weil diese dem Fachmann an sich bekannten Enzyme am proteolytischen Abbau der intakten Knorpelmatrix entscheidend beteiligt sind.
Kaninchen Synoviocyten (HIG-82; ATCC, Rockville, Maryland, USA) werden in Nährmedium HAM'S F12 (Sigma, Deisenhofen, Deutschland, Katalog Nr. N-6760) mit 10 % fötalem Rinder Serum (Sigma, Deisenhofen, Deutschland, Katalog Nr. F-2442), zusammen mit Penicillin 100 U/ml sowie Streptomycin 100 µg/ml, kultiviert. Nach konfluentem Zellwachstum wird die MMP Expression in serumfreiem HAM'S F12 durch Zugabe von 0,3 µmol/l Phorbol-12-Myristat-13-Acetat induziert. Nach 20 h Inkubationszeit bei 37°C wird der Überstand abgenommen.
Der Überstand wird mit Trypsin (5 µg/ml) aktiviert. Nach 15 Minuten (min) bei 37°C wird die Aktivierung durch Zugabe von 1 mmol/l Phenylmethylsulfonylfluorid (PMSF) beendet und für weitere 10 min nachinkubiert. Das Gesamtvolumen des Ansatzes beträgt 210 µl.
Messung der MMP Aktivität (Lit.: C.G. Knight et al.; FEBS Lett. 296, 263 (1992)):
20 µl des obengenannten Überstandes werden 1:10 verdünnt, und mit 240 µl Puffer (0,1 Tris/HCl pH 7,5; 0,1 M NaCl; 0,01 M CaCl₂; 0,05 % Brij) gemischt. Die Prüfsubstanz wird in der angegebenen Konzentration (s. Tabelle) zugegeben. Nach einer Inkubationszeit von 15 min wird die Reaktion durch Zugabe von 20 µmol/l Fluoreszenz-Substanz ((7-Methoxycoumarin-4-yl)acetyl-pro-Leu-Gly-Leu-[3-(2',4'-dinitrophenyl)-L-2,3-diaminopropionyl]-Ala-Arg-NH₂; Bachem, Heidelberg, Deutschland, Kat. Nr.: M-1895) gestartet. Die Reaktion wird nach 30 min durch Zugabe von 10 mmol/l EDTA beendet. Das Gesamtvolumen des Ansatzes beträgt 320 µl. Als Meßparameter dienen die Fluoreszenzintensitäten bei λex: 328 nm und […]. Um die mögliche Eigenfluoreszens der Prüfsubstanzen zu berücksichtigen, werden die Fluoreszenzintensitäten von Parallel-Messungen ohne Substrat von den Messwerten mit Substrat abgezogen. Alle Operationen erfolgen bei 20°C. Im Kontrollexperiment ohne Hemmstoff wird die Fluoreszenz entsprechen 0 % Hemmung gesetzt, während völlige Auslöschung der Fluoreszenz 100 % Hemmung bedeutet.

The subject of the next data set is IL-1alpha. The data set can be described thus: LPS-stimulated interleukin release from human mononuclear cells, ELISA (IL-1alpha). In kind it is cell-based. The conditions noted are these: 10 µmol/l, 20-22 h, read-out: % Hemmung der Interleukin-Freisetzung. As to the method:
as §1, §2, §3, §4

Structures are written as SMILES. Like-named read-outs stand apart in the source and are kept apart here.

As a reminder, the IC50 is the concentration needed to halve the response being measured. For the compound `COP(=O)(OC)C(Nc1ccc2c(c1)OCO2)c1cc(C(C)(C)C)c(O)c(C(C)(C)C)c1` (centres unmarked) [Beispiel 60], the “Stimulationsfaktor der Proteoglykansynthese” value in the data set with Chondrozyten [1] is reported as 1,4. Moreover, in the data set with TNF-alpha, the inhibition at 10 µM was 24%. Further, the concentration for half-maximal inhibition (IC50) in the data set on Rattenlebermikrosomen was determined as 0.71 µM.
Regarding `CCOP(=O)(OCC)C(Nc1ncccn1)c1cc(C(C)(C)C)c(O)c(C(C)(C)C)c1` (centres unmarked) [Beispiel 80], in the data set on Chondrozyten [1], the “Stimulationsfaktor der Proteoglykansynthese” value was 2,4. For the same compound, in the data set on TNF-alpha, the inhibition at 10 µM stood at 21%. For the same compound, the IC50 with Rattenlebermikrosomen stood at 2.9 µM.
Regarding `CCCOP(=O)(OCCC)C(Nc1ccc2c(c1)OCO2)c1cc(C(C)(C)C)c(O)c(C(C)(C)C)c1` (centres unmarked) [Beispiel 62], the “Stimulationsfaktor der Proteoglykansynthese” value in the data set on Chondrozyten [1] was 1,2. Also, the fold induction at 10 µM with Chondrozyten [2] (agarose cell culture, test substance usually 10⁻⁵ M, mean sulfate incorporation divided by untreated control (>1 = stimulation)) was found to be 1.2. The half-maximal inhibitory concentration (IC50) in the data set with Rattenlebermikrosomen is 0.24 µM. Moreover, the inhibition at 10 µM in the data set on IL-1beta was determined as 46%. Moreover, the entries for the “Hemmung der MMP” value in data set [3] (10 µM), in data set [3] (30 µM) and in data set [3] (100 µM) were 23%, 68% and 83%, respectively.
Turning to `CCCCOP(=O)(OCCCC)C(Nc1ccc(Cl)cc1)c1cc(C(C)(C)C)c(O)c(C(C)(C)C)c1` (centres unmarked) [Beispiel 45], the “Stimulationsfaktor der Proteoglykansynthese” value with Chondrozyten [1] is reported as 1,2. Further, in the data set with Rattenlebermikrosomen, the IC50 was 6.15 µM. Also, the inhibition at 10 µM in the data set on IL-1alpha is 22%.
For `CCOP(=O)(OCC)C(c1cc(C(C)(C)C)c(O)c(C(C)(C)C)c1)N1CCCCC1` (centres unmarked) [Beispiel 22], the fold induction at 10 µM in the data set on Chondrozyten [2] is 1.2. Also, the inhibition at 10 µM was found to be 86% in the data set with TNF-alpha and 80% in the data set with IL-1alpha. In the data set on Rattenlebermikrosomen, the IC50 worked out at 2.45 µM. In addition, the “Hemmung der MMP” value is reported as 12% in data set [3] (30 µM) and 34% in data set [3] (100 µM).
Take `COP(=O)(OC)C(NC1CCCCC1)c1cc(C(C)(C)C)c(O)c(C(C)(C)C)c1` (centres unmarked) [Beispiel 7]: the IC50 in the data set on Rattenlebermikrosomen was found to be 2.4 µM. Besides, the inhibition at 10 µM in the data set with IL-1alpha amounted to 21%.
Regarding `CCOP(=O)(OCC)C(c1cc(C(C)(C)C)c(O)c(C(C)(C)C)c1)N1CCOCC1` (centres unmarked) [Beispiel 23], the inhibition at 10 µM in the data set on TNF-alpha was found to be 70%; in the data set on IL-1alpha, 75%. Moreover, in the data set with Rattenlebermikrosomen, the IC50 is 2.45 µM.
As for `CCOP(=O)(OCC)C(c1cc(C(C)(C)C)c(O)c(C(C)(C)C)c1)N1CCN(c2ccccc2)CC1` (centres unmarked) [Beispiel 25], the inhibition at 10 µM in the data set with TNF-alpha worked out at 36%; in the data set on IL-1alpha, 60%. Also, in the data set with Rattenlebermikrosomen, the IC50 turned out to be 2.45 µM.
For `CCOP(=O)(OCC)C(c1cc(C(C)(C)C)c(O)c(C(C)(C)C)c1)N(C)c1ccccc1` (centres unmarked) [Beispiel 53], in the data set on Chondrozyten [1], the “Stimulationsfaktor der Proteoglykansynthese” value was 1,7. Besides, in the data set on Rattenlebermikrosomen, the IC50 was found to be 2.03 µM. For the same compound, the inhibition at 10 µM with IL-1beta was 53%. For the same compound, the “Hemmung der MMP” value turned out to be 11% in data set [3] (30 µM) and 25% in data set [3] (100 µM).
